Laboratory results from ChEMBL document CHEMBL2074399, “Effects of steroids and verapamil on P-glycoprotein ATPase activity: progesterone, desoxycorticosterone, corticosterone and verapamil are mutually non-exclusive modulators” (Biochem J, 1996).

Molecular target: ATP-dependent translocase ABCB1 (Homo sapiens, UniProt P08183)
Experiment: TP_TRANSPORTER: inhibition of Verapamil stimulated ATP hydrolysis (Verapamil: 2 uM, Corticosterone: 800 uM) in membrane vesicles from DC-3F/ADX cells
Format: functional, cell membranes, Membrane vesicle
Details: hamster

Sequence of ATP-dependent translocase ABCB1 (P08183 whole entry): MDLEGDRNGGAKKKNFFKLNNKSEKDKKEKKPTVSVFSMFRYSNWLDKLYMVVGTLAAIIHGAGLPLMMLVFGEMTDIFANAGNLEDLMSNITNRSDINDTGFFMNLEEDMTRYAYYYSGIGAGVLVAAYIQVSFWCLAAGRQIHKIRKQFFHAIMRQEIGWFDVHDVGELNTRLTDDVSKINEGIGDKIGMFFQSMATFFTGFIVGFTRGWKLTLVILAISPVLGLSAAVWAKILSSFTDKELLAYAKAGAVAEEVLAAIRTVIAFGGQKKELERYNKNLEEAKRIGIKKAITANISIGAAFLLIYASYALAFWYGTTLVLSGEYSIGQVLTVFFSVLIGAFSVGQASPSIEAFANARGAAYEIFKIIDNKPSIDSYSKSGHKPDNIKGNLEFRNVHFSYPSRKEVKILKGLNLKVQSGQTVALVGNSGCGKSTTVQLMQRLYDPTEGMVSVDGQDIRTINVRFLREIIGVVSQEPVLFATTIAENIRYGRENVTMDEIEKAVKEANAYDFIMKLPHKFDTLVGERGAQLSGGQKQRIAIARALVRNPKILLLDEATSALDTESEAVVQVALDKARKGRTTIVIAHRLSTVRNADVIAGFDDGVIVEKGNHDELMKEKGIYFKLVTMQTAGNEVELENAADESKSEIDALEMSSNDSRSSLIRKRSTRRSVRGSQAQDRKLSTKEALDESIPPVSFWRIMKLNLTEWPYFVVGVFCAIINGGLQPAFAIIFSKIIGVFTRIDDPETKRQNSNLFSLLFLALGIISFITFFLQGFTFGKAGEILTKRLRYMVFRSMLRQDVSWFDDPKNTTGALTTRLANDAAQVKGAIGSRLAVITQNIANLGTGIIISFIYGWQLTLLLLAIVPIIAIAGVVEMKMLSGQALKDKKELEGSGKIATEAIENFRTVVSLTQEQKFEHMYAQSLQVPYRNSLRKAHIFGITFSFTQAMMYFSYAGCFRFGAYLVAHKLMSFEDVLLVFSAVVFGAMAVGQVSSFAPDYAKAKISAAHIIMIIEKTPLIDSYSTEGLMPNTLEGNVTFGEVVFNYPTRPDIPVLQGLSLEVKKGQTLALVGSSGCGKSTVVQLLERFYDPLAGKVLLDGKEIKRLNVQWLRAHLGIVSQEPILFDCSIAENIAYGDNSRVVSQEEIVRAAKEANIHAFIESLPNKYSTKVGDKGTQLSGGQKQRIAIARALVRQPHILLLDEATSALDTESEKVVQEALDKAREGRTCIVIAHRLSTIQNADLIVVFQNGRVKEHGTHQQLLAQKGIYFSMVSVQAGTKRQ

Activity: inhibitor [+]
SMILES: C[C@]12C[C@H](O)[C@H]3[C@@H](CCC4=CC(=O)CC[C@@]43C)[C@@H]1CC[C@@H]2C(=O)CO [CORTICOSTERONE]
